Our source for the IC50, EC50 and Snhg1 fold change values is US20260109715A1, “IMIDAZOPYRIDINE DERIVATIVES WITH BICYCLIC STRUCTURE” (PUBLIC UNIVERSITY CORPORATION YOKOHAMA CITY UNIVERSITY, priority 2022, published 2026).

For one experiment, the target named is human SMG1 enzyme (Homo sapiens, UniProt Q96Q15). Nature of the experiment: Measurement of SMG1 kinase activity (ADP-Glo Kinase Assay). The format is biochemical. As to conditions: purified human SMG1 enzyme 5 nM, Upf1 peptide substrate, ATP 4 μM; qAC50 synonymous with IC50; read-out: Test Example 1 ADP-Glo IC50. In a few lines: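 ADP-Glo luminescence readout of ADP made by 5 nM human SMG1 acting on 8 μg/mL Upf1 peptide with 4 μM ATP for 60 min at room temperature, after a 15 min enzyme–compound preincubation (1% DMSO; pH 7.5 HEPES, MnCl2). Activity scaled between DMSO and no-enzyme wells; IC50 by four-parameter logistic regression.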

The subject of experiment [1] is Snhg1 transcript (NMD target gene) in EMT6 murine breast cancer cell line. Nature of the experiment: Measurement of NMD inhibitory activity in cells (increase in Snhg1 transcript, real-time PCR). Conditions: 6 hours treatment, concentration giving 1/2 of maximum Snhg1 fold change of positive control, read-out: Test Example 2 Cell-based Snhg1 EC50. Also noted: species or system mouse. An outline of the steps:
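EMT6 cells treated with serially diluted compound (2% DMSO final) for 6 h; Snhg1 transcript quantified by real-time PCR (ΔΔCT, Tbp endogenous control, untreated wells set to 1). EC50 taken as concentration giving half the maximum fold change of a known NMD inhibitor positive control.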

The subject of experiment [2] is Snhg1 transcript in tumor tissues of mice subcutaneously implanted with EMT6 murine breast cancer cell line. In words: Evaluation of NMD inhibitory activity in vivo (Snhg1 transcript in EMT6 tumor tissue after oral administration). Conditions: 6 hours after administration, BALB/c mice. How it is done: The NMD inhibitory activity of a compound of the present invention or a pharmaceutically acceptable salt thereof in vivo can be measured, for example, by the method described below. Using mice subcutaneously implanted with EMT6 murine breast cancer cell line, tumor tissues 6 hours after oral administration of a test substance are excised, and the increase in Snhg1 transcript is quantified as an indicator of NMD inhibition in the tumor, in the same manner as in the in vitro method.
In this test, NMD inhibitory activity in tumor tissues was evaluated when a test substance was orally administered to mice subcutaneously implanted with EMT6 murine breast cancer cell line. As an indicator of NMD inhibitory activity, the increase in the transcript of Snhg1, an NMD target gene, was quantified. First, BALB/c mice were subcutaneously implanted with EMT6 cells (ATCC), and engraftment was confirmed 7 days later. Six hours after administration of the test substance, mice were euthanized, and the collected tumor tissues were cryopreserved. RNA was extracted from the tumor tissues using the illustra RNAspin Mini RNA Isolation kit (GE Healthcare Life Sciences). After synthesizing cDNA using the High-Capacity cDNA Reverse Transcription Kits (Applied Biosystems, 4368813), the cDNA was mixed with PrimeTime Gene Expression Master Mix (Integrated DNA Technologies) and various probes, and gene expression was quantified by QuantStudio 6 Flex (Thermo Fisher Scientific Inc.). For the probe for the Snhg1 gene, which is an NMD target, Mm.PT.58.44039547 (FAM) (Integrated DNA Technologies) was used, and for the probe for the Gapdh gene, which is an endogenous control, Mm99999915_g2 (VIC-PL) (Applied Biosystems) was used. The relative quantification of Snhg1 transcripts in each sample was calculated by the ΔΔCT method using Gapdh as an endogenous control, and the expression level of Snhg1 in each test substance administration group was calculated by setting the expression level of the Vehicle group (0.5% methylcellulose administration group) to 1.

pEC50, pIC50: −log10 of the molar value. Where two headings read alike, the source gives them in different places.

Chain of human SMG1 enzyme (Q96Q15 whole entry): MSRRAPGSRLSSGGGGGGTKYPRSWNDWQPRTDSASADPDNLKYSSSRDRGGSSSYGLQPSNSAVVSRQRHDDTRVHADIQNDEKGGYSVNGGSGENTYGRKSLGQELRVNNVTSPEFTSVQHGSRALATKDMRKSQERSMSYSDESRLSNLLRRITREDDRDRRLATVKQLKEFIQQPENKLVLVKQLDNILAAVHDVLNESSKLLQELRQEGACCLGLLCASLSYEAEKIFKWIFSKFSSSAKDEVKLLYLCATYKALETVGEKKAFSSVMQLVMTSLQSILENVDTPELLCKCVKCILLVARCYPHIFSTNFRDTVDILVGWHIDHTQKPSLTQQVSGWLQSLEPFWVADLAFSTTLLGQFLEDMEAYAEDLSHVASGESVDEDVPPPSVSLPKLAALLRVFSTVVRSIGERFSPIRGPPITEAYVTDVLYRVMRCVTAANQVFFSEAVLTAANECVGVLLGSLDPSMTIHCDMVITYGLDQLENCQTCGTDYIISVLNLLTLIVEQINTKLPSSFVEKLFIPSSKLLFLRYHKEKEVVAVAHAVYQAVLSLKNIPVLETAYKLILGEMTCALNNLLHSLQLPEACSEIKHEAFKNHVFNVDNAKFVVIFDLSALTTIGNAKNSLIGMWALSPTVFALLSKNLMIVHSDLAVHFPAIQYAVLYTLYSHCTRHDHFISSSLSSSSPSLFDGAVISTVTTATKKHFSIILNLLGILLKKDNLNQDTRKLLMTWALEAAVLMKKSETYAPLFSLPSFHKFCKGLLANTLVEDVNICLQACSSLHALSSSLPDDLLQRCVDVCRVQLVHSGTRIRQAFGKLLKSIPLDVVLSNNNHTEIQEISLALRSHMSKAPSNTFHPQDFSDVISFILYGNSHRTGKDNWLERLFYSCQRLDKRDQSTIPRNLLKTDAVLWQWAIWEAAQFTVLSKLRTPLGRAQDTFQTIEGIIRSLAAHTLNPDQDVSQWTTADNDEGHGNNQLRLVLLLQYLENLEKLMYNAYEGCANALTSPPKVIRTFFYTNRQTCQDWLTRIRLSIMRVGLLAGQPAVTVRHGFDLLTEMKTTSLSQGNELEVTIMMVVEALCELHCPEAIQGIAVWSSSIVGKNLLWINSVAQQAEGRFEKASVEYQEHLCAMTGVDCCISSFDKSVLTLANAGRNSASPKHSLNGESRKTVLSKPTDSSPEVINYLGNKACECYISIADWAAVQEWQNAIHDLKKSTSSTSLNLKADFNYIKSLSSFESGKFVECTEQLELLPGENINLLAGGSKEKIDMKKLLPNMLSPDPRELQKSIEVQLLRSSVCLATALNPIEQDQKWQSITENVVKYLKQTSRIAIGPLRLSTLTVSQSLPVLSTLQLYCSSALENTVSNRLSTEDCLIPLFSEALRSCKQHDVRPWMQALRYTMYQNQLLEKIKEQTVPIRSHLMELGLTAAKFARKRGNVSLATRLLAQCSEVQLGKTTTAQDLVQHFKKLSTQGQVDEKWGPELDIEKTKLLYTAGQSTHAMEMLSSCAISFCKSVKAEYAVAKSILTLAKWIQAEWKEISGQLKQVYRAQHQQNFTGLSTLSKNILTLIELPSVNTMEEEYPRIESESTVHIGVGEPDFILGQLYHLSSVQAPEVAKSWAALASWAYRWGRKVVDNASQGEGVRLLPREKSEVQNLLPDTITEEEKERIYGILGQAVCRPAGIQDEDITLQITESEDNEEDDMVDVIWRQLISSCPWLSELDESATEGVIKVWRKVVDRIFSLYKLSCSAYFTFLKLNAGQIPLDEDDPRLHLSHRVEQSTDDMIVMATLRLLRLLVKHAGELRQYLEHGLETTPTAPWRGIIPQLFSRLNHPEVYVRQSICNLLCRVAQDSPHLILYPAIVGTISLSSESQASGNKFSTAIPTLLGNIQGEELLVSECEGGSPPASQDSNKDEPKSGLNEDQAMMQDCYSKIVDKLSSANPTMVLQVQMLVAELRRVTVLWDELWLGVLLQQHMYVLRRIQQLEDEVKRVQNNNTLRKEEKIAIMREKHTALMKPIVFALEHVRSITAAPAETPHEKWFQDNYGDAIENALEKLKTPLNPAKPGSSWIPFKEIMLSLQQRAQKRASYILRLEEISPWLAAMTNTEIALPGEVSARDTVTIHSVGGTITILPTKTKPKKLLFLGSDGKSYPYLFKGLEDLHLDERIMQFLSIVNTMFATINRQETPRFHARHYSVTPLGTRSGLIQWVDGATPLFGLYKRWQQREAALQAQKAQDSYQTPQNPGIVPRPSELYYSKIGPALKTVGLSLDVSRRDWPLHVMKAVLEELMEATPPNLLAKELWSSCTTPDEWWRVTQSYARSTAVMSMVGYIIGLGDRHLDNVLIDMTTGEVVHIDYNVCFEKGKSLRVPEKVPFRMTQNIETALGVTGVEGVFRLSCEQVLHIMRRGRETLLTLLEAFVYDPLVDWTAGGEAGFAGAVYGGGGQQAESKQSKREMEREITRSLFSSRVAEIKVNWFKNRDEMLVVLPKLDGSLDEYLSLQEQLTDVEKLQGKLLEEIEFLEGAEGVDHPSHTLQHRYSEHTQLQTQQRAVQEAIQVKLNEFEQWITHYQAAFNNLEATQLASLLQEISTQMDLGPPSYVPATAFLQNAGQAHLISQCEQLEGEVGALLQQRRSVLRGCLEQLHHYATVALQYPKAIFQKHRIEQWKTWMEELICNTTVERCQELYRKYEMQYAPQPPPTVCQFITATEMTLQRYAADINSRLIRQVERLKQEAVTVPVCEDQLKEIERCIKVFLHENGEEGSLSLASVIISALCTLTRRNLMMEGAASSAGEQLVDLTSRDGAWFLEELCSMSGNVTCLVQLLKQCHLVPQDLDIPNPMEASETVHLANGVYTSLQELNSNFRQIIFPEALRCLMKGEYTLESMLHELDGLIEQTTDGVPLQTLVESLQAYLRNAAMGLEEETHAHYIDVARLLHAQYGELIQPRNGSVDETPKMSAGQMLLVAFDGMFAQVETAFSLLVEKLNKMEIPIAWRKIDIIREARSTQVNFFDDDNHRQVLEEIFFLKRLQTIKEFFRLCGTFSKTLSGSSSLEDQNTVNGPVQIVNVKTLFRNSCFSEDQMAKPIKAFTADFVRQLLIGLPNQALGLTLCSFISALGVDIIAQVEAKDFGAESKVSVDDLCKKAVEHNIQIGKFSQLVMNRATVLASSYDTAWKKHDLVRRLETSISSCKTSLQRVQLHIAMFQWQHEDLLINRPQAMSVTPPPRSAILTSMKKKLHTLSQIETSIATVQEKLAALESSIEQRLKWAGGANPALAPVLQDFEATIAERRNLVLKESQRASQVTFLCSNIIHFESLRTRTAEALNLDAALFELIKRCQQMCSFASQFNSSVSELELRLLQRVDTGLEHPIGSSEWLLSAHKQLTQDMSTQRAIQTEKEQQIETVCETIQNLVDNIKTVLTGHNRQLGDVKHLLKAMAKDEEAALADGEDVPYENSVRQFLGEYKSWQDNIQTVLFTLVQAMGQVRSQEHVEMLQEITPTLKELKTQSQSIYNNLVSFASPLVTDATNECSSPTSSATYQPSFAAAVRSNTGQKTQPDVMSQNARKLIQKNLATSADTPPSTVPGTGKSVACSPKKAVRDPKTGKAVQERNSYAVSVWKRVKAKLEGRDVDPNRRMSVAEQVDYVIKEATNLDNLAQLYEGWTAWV

One may read the pIC50 as −log10 of the IC50, conventionally taken in molar units. A word on the pEC50: it is the EC50 on a negative log10 scale, so that one unit is a factor of ten. With “3-(6-chloro-4-methyl-1H-imidazo[4,5-c]pyridin-2-yl)-5-(2-fluoro-6-methoxyphenyl)-1,6-naphthyridin-2(1H)-one methanesulfonate [Example 130]”, on human SMG1 enzyme, the pIC50 was 8.80. Besides, the pEC50 in experiment [1] is 7.96. Besides, the Snhg1 fold change in experiment [2] (10 mg/kg oral) worked out at 9.2.

`C[C@@H](Nc1nc(Cl)cc2[nH]c(-c3cc4c(N5CCC(N(C)C)CC5)nccc4[nH]c3=O)nc12)C(F)(F)F` [Example 8, 3-(6-chloro-4-{[(2R)-1,1,1-trifluoropropan-2-yl]amino}-1H-imidazo[4,5-c]pyridin-2-yl)-5-[4-(dimethylamino)piperidin-1-yl]-1,6-naphthyridin-2(1H)-one]: the pIC50 at human SMG1 enzyme is 8.74. The pEC50 in experiment [1] (Mus musculus) is 7.44. Also, the Snhg1 fold change in experiment [2] (30 mg/kg oral) is listed as 4.1.

As to `CC1(C)CC(O)(c2nc(Cl)cc3[nH]c(-c4cc5cnccc5[nH]c4=O)nc23)CCO1` (stereo not drawn) [Example 19, 3-[6-chloro-4-(4-hydroxy-2,2-dimethyltetrahydro-2H-pyran-4-yl)-1H-imidazo[4,5-c]pyridin-2-yl]-1,6-naphthyridin-2(1H)-one], the pIC50 on human SMG1 enzyme is 8.62. The pEC50 in experiment [1] (Mus musculus) was 6.95. In experiment [2] (100 mg/kg oral), the Snhg1 fold change is on record as 7.5.

With `[2H]C([2H])([2H])Oc1ccccc1-c1nccc2[nH]c(=O)c(-c3nc4c(C)nc(Cl)cc4[nH]3)cc12` [Example 26, 3-(6-chloro-4-methyl-1H-imidazo[4,5-c]pyridin-2-yl)-5-{2-[(^2H3)methyloxy]phenyl}-1,6-naphthyridin-2(1H)-one], at human SMG1 enzyme, the pIC50 is 9.00. In experiment [1] (Mus musculus), the negative logarithm of the EC50 (pEC50) is 7.55. In experiment [2] (10 mg/kg oral), the Snhg1 fold change was found to be 12.

`O=c1[nH]c2ccnc(-c3ccccc3Cl)c2cc1-c1nc2cnc(Cl)cc2[nH]1` [Example 28, 3-(6-chloro-1H-imidazo[4,5-c]pyridin-2-y1)-5-(2-chlorophenyl)-1,6-naphthyridin-2(1H)-one]: at human SMG1 enzyme, the negative-log IC50 (pIC50) is 8.70. The negative logarithm of the EC50 (pEC50) in experiment [1] (Mus musculus) is 7.11. Further, the Snhg1 fold change in experiment [2] (25 mg/kg oral) was 8.8.

Take `Cc1nc(Cl)cc2[nH]c(-c3cc4c(-c5ccccc5Cl)nccc4[nH]c3=O)nc12` [Example 29, 3-(6-chloro-4-methyl-1H-imidazo[4,5-c]pyridin-2-y1)-5-(2-chlorophenyl)-1,6-naphthyridin-2(1H)-one]: the pIC50 at human SMG1 enzyme was 8.70. The pEC50 in experiment [1] (Mus musculus) is 7.25. Besides, in experiment [2] (30 mg/kg oral), the Snhg1 fold change stood at 4.6.

Take `Cc1nc(Cl)cc2[nH]c(-c3cc4c(-c5c(F)cccc5Cl)nccc4[nH]c3=O)nc12` [Example 31, 5-(2-chloro-6-fluorophenyl)-3-(6-chloro-4-methyl-1H-imidazo[4,5-c]pyridin-2-y1)-1,6-naphthyridin-2(1H)-one]: the negative-log IC50 (pIC50) on human SMG1 enzyme was 8.89. Further, the pEC50 in experiment [1] (Mus musculus) was 7.47. Further, the Snhg1 fold change in experiment [2] (10 mg/kg oral) is 5.5.

In the case of `Cc1ccccc1-c1nccc2[nH]c(=O)c(-c3nc4cnc(Cl)cc4[nH]3)cc12` [Example 32, 3-(6-chloro-1H-imidazo[4,5-c]pyridin-2-y1)-5-(2-methylpheny1)-1,6-naphthyridin-2(1H)-one], at human SMG1 enzyme, the pIC50 was 8.62. In addition, in experiment [1] (Mus musculus), the negative-log EC50 (pEC50) was 7.11. In experiment [2] (50 mg/kg oral), this compound gave a Snhg1 fold change of 12.

Consider `COc1ccccc1-c1nccc2[nH]c(=O)c(-c3nc4cnc(Cl)cc4[nH]3)cc12` [Example 34, 3-(6-chloro-1H-imidazo[4,5-c]pyridin-2-y1)-5-(2-methoxyphenyl)-1,6-naphthyridin-2(1H)-one], for which, on human SMG1 enzyme, the pIC50 is 8.66. Also, in experiment [1] (Mus musculus), the negative-log EC50 (pEC50) was 7.60. In addition, in experiment [2] (25 mg/kg oral), the Snhg1 fold change turned out to be 6.2.

Consider `COc1cccc(F)c1-c1nccc2[nH]c(=O)c(-c3nc4cnc(Cl)cc4[nH]3)cc12` [Example 35, 3-(6-chloro-1H-imidazo[4,5-c]pyridin-2-y1)-5-(2-fluoro-6-methoxyphenyl)-1,6-naphthyridin-2(1H)-one], for which the negative-log IC50 (pIC50) on human SMG1 enzyme was 8.85. Further, the negative logarithm of the EC50 (pEC50) in experiment [1] (Mus musculus) was 7.40. For the same compound, in experiment [2] (10 mg/kg oral), the Snhg1 fold change was 4.6.

On to `CCc1nc(Cl)cc2[nH]c(-c3cc4c(-c5cc(F)ccc5OC)nccc4[nH]c3=O)nc12` [Example 36, 3-(6-chloro-4-ethyl-1H-imidazo[4,5-c]pyridin-2-yl)-5-(5-fluoro-2-methoxyphenyl)-1,6-naphthyridin-2(1H)-one], for which the negative logarithm of the IC50 (pIC50) at human SMG1 enzyme was 8.92. The pEC50 in experiment [1] (Mus musculus) was 7.96. The compound also had a Snhg1 fold change in experiment [2] (10 mg/kg oral) of 7.5.

For the compound `[2H]C([2H])([2H])Oc1ccccc1-c1nccc2[nH]c(=O)c(-c3nc4c(CC)nc(Cl)cc4[nH]3)cc12` [Example 37, 3-(6-chloro-4-ethyl-1H-imidazo[4,5-c]pyridin-2-yl)-5-{2-[(^2H3)methyloxy]phenyl}-1,6-naphthyridin-2(1H)-one], the negative logarithm of the IC50 (pIC50) on human SMG1 enzyme was 9.44. Also, in experiment [1] (Mus musculus), the negative-log EC50 (pEC50) was 8.03. The same compound gave a Snhg1 fold change in experiment [2] (10 mg/kg oral) of 8.4.

With `[2H]C([2H])([2H])Oc1ccccc1-c1nccc2[nH]c(=O)c(-c3nc4c(C(C)C)nc(Cl)cc4[nH]3)cc12` [Example 38, 3-[6-chloro-4-(propan-2-yl)-1H-imidazo[4,5-c]pyridin-2-yl]-5-{2-[(^2H3)methyloxy]phenyl}-1,6-naphthyridin-2(1H)-one], the negative logarithm of the IC50 (pIC50) on human SMG1 enzyme was 8.77. In addition, the negative-log EC50 (pEC50) in experiment [1] (Mus musculus) was 8.00. In experiment [2] (30 mg/kg oral), the Snhg1 fold change is recorded as 9.2.

As for `COc1cc(C(C)C)ncc1-c1nccc2[nH]c(=O)c(-c3nc4cnc(Cl)cc4[nH]3)cc12` [Example 61, 3-(6-chloro-1H-imidazo[4,5-c]pyridin-2-yl)-5-[4-methoxy-6-(propan-2-yl)pyridin-3-yl]-1,6-naphthyridin-2(1H)-one], the pIC50 on human SMG1 enzyme is 8.85. Also, the negative logarithm of the EC50 (pEC50) in experiment [1] (Mus musculus) was 7.59. Also, the Snhg1 fold change in experiment [2] (100 mg/kg oral) was 4.3.

As to `CCc1nc(Cl)cc2[nH]c(-c3cc4c(-c5ccc(C)nc5OC)nccc4[nH]c3=O)nc12` [Example 68, 3-(6-chloro-4-ethyl-1H-imidazo[4,5-c]pyridin-2-yl)-5-(2-methoxy-6-methylpyridin-3-yl)-1,6-naphthyridin-2(1H)-one], on human SMG1 enzyme, the pIC50 was 9.21. In addition, the pEC50 in experiment [1] (Mus musculus) was 8.00. Moreover, the Snhg1 fold change in experiment [2] (30 mg/kg oral) was determined as 8.3.

For the compound `CS(=O)(=O)O.[2H]C([2H])([2H])Oc1ccccc1-c1nccc2[nH]c(=O)c(-c3nc4c(N[C@H]5CCOC5)nc(Cl)cc4[nH]3)cc12` [Example 134, 3-{6-chloro-4-[(3S)-tetrahydrofuran-3-ylamino]-1H-imidazo[4,5-c]pyridin-2-yl}-5-(2-[(2H3)methyloxy]phenyl)-1,6-naphthyridin-2(1H)-one methanesulfonate], the pIC50 at human SMG1 enzyme was 8.96. Also, the negative logarithm of the EC50 (pEC50) in experiment [1] (Mus musculus) was 7.74.

Turning to `CCc1nc(Cl)cc2[nH]c(-c3cc4c(-c5ccn(C(F)F)n5)nccc4[nH]c3=O)nc12` [Example 150, 3-(6-chloro-4-ethyl-1H-imidazo[4,5-c]pyridin-2-yl)-5-[1-(difluoromethyl)-1H-pyrazol-3-yl]-1,6-naphthyridin-2(1H)-one methanesulfonate], at human SMG1 enzyme, the pIC50 is 8.44. Besides, in experiment [1] (Mus musculus), the pEC50 was 7.18.

As to `CCc1nc(Cl)cc2[nH]c(-c3cc4c(-c5cc(C)n(C)n5)nccc4[nH]c3=O)nc12` [Example 151, 3-(6-chloro-4-ethyl-1H-imidazo[4,5-c]pyridin-2-yl)-5-(1,5-dimethyl-1H-pyrazol-3-yl)-1,6-naphthyridin-2(1H)-one methanesulfonate], the negative logarithm of the IC50 (pIC50) at human SMG1 enzyme is 8.82. Also, in experiment [1] (Mus musculus), the negative logarithm of the EC50 (pEC50) is 7.80.
